In the assay the target is T1, Ba/F3 KIF5B-RET (Homo sapiens, UniProt P07949, cells depend on it, form not given).
T1 construct: IC50 (nM); other: Experiment 1; other: Experiment 2; fused on or other part: P33176 (Kinesin-1 heavy chain)
The assay is described as follows: Compound I anti-cell proliferation comparison (FIG. 5A, 5B). It counts as cell-based. The settings on record: for GI50: read-out: IC50 (the source's name). The source says: The KIF5B-RET gene was synthesized at GenScript and cloned into pCDH-CMV-MCS-EF1-Puro plasmid (System Biosciences, Inc). KIF5B-RET point mutation V804M and G810C were generated at GenScript by PCR and confirmed by sequencing. Ba/F3-KIF5B-RET wild type and mutant were generated by transducing Ba/F3 cells with lentivirus containing KIF5B-RET wide type or mutant. Stable cell lines were selected by puromycin treatment, followed by IL-3 withdrawal. Briefly, 5×10^6 Ba/F3 cells were transduced with lentivirus supernatant in the presence of 8 μg/mL protamine sulfate. The transduced cells were subsequently selected with 1 μg/mL puromycin in the presence of IL3-containing medium RPMI1640, plus 10% FBS. After 10-12 days of selection, the surviving cells were further selected for […] independent growth.
Two thousand cells per well were seeded in 384 well white plate for 24 hrs, and then treated with compounds for 72 hours (37° C., 5% CO2). Cell proliferation was measured using CellTiter-Glo luciferase-based ATP detection assay (Promega) following the manufactures's protocol. IC50 determinations were performed using GraphPad Prism software (GraphPad, Inc., San Diego, Calif.).

Consider two compounds from patent US20220411439A1, “POLYMORPHS OF A MACROCYCLIC KINASE INHIBITOR” (TURNING POINT THERAPEUTICS, INC., priority 2019, published 2022).

Where two headings read alike, the source gives them in different places.

T1 sequence (P07949 whole entry G810C, form open, the tested form may be a part): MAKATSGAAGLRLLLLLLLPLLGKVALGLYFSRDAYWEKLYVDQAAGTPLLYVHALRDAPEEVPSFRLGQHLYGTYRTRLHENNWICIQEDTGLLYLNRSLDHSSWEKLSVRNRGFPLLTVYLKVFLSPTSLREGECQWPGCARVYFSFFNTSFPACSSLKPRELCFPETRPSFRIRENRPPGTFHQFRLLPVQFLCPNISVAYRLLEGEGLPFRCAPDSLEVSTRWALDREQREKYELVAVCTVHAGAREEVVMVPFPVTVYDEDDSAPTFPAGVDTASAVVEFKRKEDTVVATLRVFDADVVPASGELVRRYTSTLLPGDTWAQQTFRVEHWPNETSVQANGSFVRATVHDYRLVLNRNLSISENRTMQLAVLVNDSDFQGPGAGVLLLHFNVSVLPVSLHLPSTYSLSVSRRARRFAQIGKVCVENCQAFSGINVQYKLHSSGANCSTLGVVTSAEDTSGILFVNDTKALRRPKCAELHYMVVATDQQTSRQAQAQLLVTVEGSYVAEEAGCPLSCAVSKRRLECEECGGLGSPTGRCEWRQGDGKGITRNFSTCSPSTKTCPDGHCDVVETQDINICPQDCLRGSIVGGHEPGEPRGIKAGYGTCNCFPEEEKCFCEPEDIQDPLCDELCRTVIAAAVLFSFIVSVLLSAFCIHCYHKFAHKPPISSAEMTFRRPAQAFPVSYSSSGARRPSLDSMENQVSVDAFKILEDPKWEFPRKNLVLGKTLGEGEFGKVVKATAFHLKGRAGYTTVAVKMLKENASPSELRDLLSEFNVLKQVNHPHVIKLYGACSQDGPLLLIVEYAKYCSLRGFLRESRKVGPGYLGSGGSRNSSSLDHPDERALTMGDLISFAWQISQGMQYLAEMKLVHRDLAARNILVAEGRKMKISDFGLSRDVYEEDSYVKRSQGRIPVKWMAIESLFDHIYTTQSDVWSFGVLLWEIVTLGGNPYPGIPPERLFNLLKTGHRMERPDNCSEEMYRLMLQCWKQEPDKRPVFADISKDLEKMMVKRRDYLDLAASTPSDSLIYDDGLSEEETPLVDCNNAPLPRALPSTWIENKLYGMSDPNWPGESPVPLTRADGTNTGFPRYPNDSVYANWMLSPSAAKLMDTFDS

With `COc1ccc(CN2C3CC2CN(c2ccc(-c4cc(OCC(C)(C)O)cn5ncc(C#N)c45)cn2)C3)cn1` [LOXO-292], under “Experiment 1”, the “IC75” value stood at 1021 nM, the IC90 was 3450 nM and the GI50 came to 301 nM. For the same compound, where the note is “Experiment 2”, the “IC75” value is 791.4 nM, the IC90 stood at 2370 nM and the GI50 is 364 nM.
On to `CO[C@]1(C(=O)N[C@@H](C)c2ccc(-n3cc(F)cn3)nc2)CC[C@H](c2nc(C)cc(Nc3cc(C)[nH]n3)n2)CC1` [BLU-667], for which, under “Experiment 1”, the “IC75” value worked out at 115.4 nM, the IC90 is 720 nM and the GI50 turned out to be 18.5 nM. Where the note is “Experiment 2”, the “IC75” value is recorded as 214.3 nM, the IC90 was 1030 nM and the GI50 was 44.6 nM.

Broadly, the IC75 is the concentration needed for an effect of 75%. High values mean a need for much substance, low ones an effect from little substance. As usually defined, the IC90 is the point of the concentration-response curve where the effect stands at 90%. High values mean weaker potency, low ones greater potency.
